Measurements from the NIST ThermoML archive (doi:10.1016/j.fluid.2018.09.024).
Numbers after ± are expanded uncertainties.

Assay: activity coefficient (dimensionless); of the first substance listed, at infinite dilution; xn = mol fraction of the nth substance listed
Settings: 101.33 kPa, Liquid, Chromatography, x1 = 0

Row | SMILES | activity coefficient (328.15 K) | activity coefficient (338.15 K) | activity coefficient (348.15 K) | activity coefficient (358.15 K) | activity coefficient (368.15 K) | activity coefficient (378.15 K) | activity coefficient (318.15 K)
1 | Cc1ccccc1C [1,2-dimethylbenzene] + CCCCCCCCCCCC[N+](C)(C)CCOc1ccccc1.N#C[N-]C#N | 1.23 ± 0.08 | 1.28 ± 0.08 | 1.32 ± 0.09 | 1.36 ± 0.09 | 1.4 ± 0.09 | 1.43 ± 0.09 | 
2 | Cc1ccccc1C [1,2-dimethylbenzene] + CCCCCCCCCCCC[N+](C)(C)CCOc1ccccc1.O=S(=O)([N-]S(=O)(=O)C(F)(F)F)C(F)(F)F | 0.83 ± 0.053 | 0.874 ± 0.056 | 0.922 ± 0.058 | 0.968 ± 0.061 | 1.01 ± 0.06 |  | 0.783 ± 0.051
3 | Cc1cccc(C)c1 [1,3-dimethylbenzene] + CCCCCCCCCCCC[N+](C)(C)CCOc1ccccc1.N#C[N-]C#N | 1.38 ± 0.09 | 1.44 ± 0.09 | 1.5 ± 0.1 | 1.56 ± 0.1 | 1.61 ± 0.11 | 1.66 ± 0.11 | 
4 | Cc1cccc(C)c1 [1,3-dimethylbenzene] + CCCCCCCCCCCC[N+](C)(C)CCOc1ccccc1.O=S(=O)([N-]S(=O)(=O)C(F)(F)F)C(F)(F)F | 0.902 ± 0.057 | 0.957 ± 0.06 | 1.01 ± 0.06 | 1.07 ± 0.07 | 1.12 ± 0.07 |  | 0.847 ± 0.054
5 | Cc1ccc(C)cc1 [1,4-dimethylbenzene] + CCCCCCCCCCCC[N+](C)(C)CCOc1ccccc1.N#C[N-]C#N | 1.38 ± 0.09 | 1.44 ± 0.09 | 1.5 ± 0.1 | 1.57 ± 0.1 | 1.63 ± 0.11 | 1.69 ± 0.11 | 
6 | Cc1ccc(C)cc1 [1,4-dimethylbenzene] + CCCCCCCCCCCC[N+](C)(C)CCOc1ccccc1.O=S(=O)([N-]S(=O)(=O)C(F)(F)F)C(F)(F)F | 0.916 ± 0.058 | 0.967 ± 0.061 | 1.02 ± 0.06 | 1.08 ± 0.07 | 1.14 ± 0.07 |  | 0.861 ± 0.055
7 | C1COCCO1 [1,4-dioxane] + CCCCCCCCCCCC[N+](C)(C)CCOc1ccccc1.N#C[N-]C#N | 0.76 ± 0.05 | 0.79 ± 0.051 | 0.818 ± 0.053 | 0.846 ± 0.054 | 0.871 ± 0.056 | 0.898 ± 0.057 | 
8 | C1COCCO1 [1,4-dioxane] + CCCCCCCCCCCC[N+](C)(C)CCOc1ccccc1.O=S(=O)([N-]S(=O)(=O)C(F)(F)F)C(F)(F)F | 0.483 ± 0.037 | 0.517 ± 0.039 | 0.551 ± 0.04 | 0.584 ± 0.041 | 0.619 ± 0.043 |  | 0.45 ± 0.036
9 | C=CCCCCCCCC [1-decene] + CCCCCCCCCCCC[N+](C)(C)CCOc1ccccc1.N#C[N-]C#N | 6.45 ± 0.44 | 6.67 ± 0.45 | 6.83 ± 0.47 | 6.99 ± 0.48 | 7.14 ± 0.49 | 7.22 ± 0.49 | 
10 | C=CCCCCCCCC [1-decene] + CCCCCCCCCCCC[N+](C)(C)CCOc1ccccc1.O=S(=O)([N-]S(=O)(=O)C(F)(F)F)C(F)(F)F | 4.15 ± 0.28 | 4.27 ± 0.29 | 4.4 ± 0.3 | 4.52 ± 0.31 | 4.63 ± 0.32 |  | 4.02 ± 0.27
11 | C=CCCCCC [1-heptene] + CCCCCCCCCCCC[N+](C)(C)CCOc1ccccc1.N#C[N-]C#N | 4.19 ± 0.29 | 4.28 ± 0.29 | 4.36 ± 0.3 | 4.43 ± 0.3 | 4.51 ± 0.31 | 4.59 ± 0.31 | 
12 | C=CCCCCC [1-heptene] + CCCCCCCCCCCC[N+](C)(C)CCOc1ccccc1.O=S(=O)([N-]S(=O)(=O)C(F)(F)F)C(F)(F)F | 2.59 ± 0.18 | 2.67 ± 0.18 | 2.76 ± 0.19 | 2.84 ± 0.19 | 2.92 ± 0.2 |  | 2.5 ± 0.17
13 | C#CCCCCC [1-heptyne] + CCCCCCCCCCCC[N+](C)(C)CCOc1ccccc1.N#C[N-]C#N | 1.93 ± 0.13 | 2.03 ± 0.14 | 2.12 ± 0.14 | 2.21 ± 0.15 | 2.3 ± 0.16 | 2.4 ± 0.16 | 
14 | C#CCCCCC [1-heptyne] + CCCCCCCCCCCC[N+](C)(C)CCOc1ccccc1.O=S(=O)([N-]S(=O)(=O)C(F)(F)F)C(F)(F)F | 1.53 ± 0.1 | 1.61 ± 0.11 | 1.68 ± 0.11 | 1.75 ± 0.12 | 1.83 ± 0.12 |  | 1.45 ± 0.1
15 | C#CCCCC [1-hexyne] + CCCCCCCCCCCC[N+](C)(C)CCOc1ccccc1.N#C[N-]C#N | 1.66 ± 0.11 | 1.74 ± 0.12 | 1.82 ± 0.12 | 1.88 ± 0.13 | 1.95 ± 0.13 | 2.02 ± 0.14 | 
16 | C#CCCCC [1-hexyne] + CCCCCCCCCCCC[N+](C)(C)CCOc1ccccc1.O=S(=O)([N-]S(=O)(=O)C(F)(F)F)C(F)(F)F | 1.33 ± 0.09 | 1.39 ± 0.09 | 1.45 ± 0.1 | 1.51 ± 0.1 | 1.57 ± 0.1 |  | 1.26 ± 0.08
17 | CCC[N+](=O)[O-] [1-nitropropane] + CCCCCCCCCCCC[N+](C)(C)CCOc1ccccc1.N#C[N-]C#N | 0.83 ± 0.053 | 0.85 ± 0.055 | 0.868 ± 0.055 | 0.886 ± 0.056 | 0.903 ± 0.057 | 0.92 ± 0.058 | 
18 | CCC[N+](=O)[O-] [1-nitropropane] + CCCCCCCCCCCC[N+](C)(C)CCOc1ccccc1.O=S(=O)([N-]S(=O)(=O)C(F)(F)F)C(F)(F)F | 0.747 ± 0.049 | 0.77 ± 0.05 | 0.793 ± 0.052 | 0.815 ± 0.053 | 0.837 ± 0.054 |  | 0.722 ± 0.048
19 | C#CCCCCCC [1-octyne] + CCCCCCCCCCCC[N+](C)(C)CCOc1ccccc1.N#C[N-]C#N | 2.22 ± 0.15 | 2.34 ± 0.16 | 2.46 ± 0.17 | 2.57 ± 0.17 | 2.68 ± 0.18 | 2.8 ± 0.19 | 
20 | C#CCCCCCC [1-octyne] + CCCCCCCCCCCC[N+](C)(C)CCOc1ccccc1.O=S(=O)([N-]S(=O)(=O)C(F)(F)F)C(F)(F)F | 1.78 ± 0.12 | 1.86 ± 0.13 | 1.95 ± 0.13 | 2.03 ± 0.14 | 2.12 ± 0.14 |  | 1.69 ± 0.11
21 | C=CCCC [1-pentene] + CCCCCCCCCCCC[N+](C)(C)CCOc1ccccc1.N#C[N-]C#N | 3.3 ± 0.22 | 3.36 ± 0.23 | 3.42 ± 0.23 | 3.48 ± 0.24 | 3.54 ± 0.24 | 3.61 ± 0.25 | 
22 | C=CCCC [1-pentene] + CCCCCCCCCCCC[N+](C)(C)CCOc1ccccc1.O=S(=O)([N-]S(=O)(=O)C(F)(F)F)C(F)(F)F | 1.88 ± 0.13 | 1.93 ± 0.13 | 1.98 ± 0.13 | 2.03 ± 0.14 | 2.08 ± 0.14 |  | 1.83 ± 0.12
23 | C#CCCC [1-pentyne] + CCCCCCCCCCCC[N+](C)(C)CCOc1ccccc1.N#C[N-]C#N | 1.47 ± 0.1 | 1.53 ± 0.1 | 1.6 ± 0.11 | 1.66 ± 0.11 | 1.73 ± 0.12 | 1.79 ± 0.12 | 
24 | C#CCCC [1-pentyne] + CCCCCCCCCCCC[N+](C)(C)CCOc1ccccc1.O=S(=O)([N-]S(=O)(=O)C(F)(F)F)C(F)(F)F | 1.13 ± 0.07 | 1.19 ± 0.08 | 1.25 ± 0.08 | 1.32 ± 0.09 | 1.39 ± 0.09 |  | 1.07 ± 0.07
25 | CC(C)CC(C)(C)C [2,2,4-trimethylpentane] + CCCCCCCCCCCC[N+](C)(C)CCOc1ccccc1.N#C[N-]C#N | 7.07 ± 0.48 | 7.15 ± 0.49 | 7.23 ± 0.49 | 7.32 ± 0.5 | 7.39 ± 0.5 | 7.47 ± 0.51 | 
26 | CC(C)CC(C)(C)C [2,2,4-trimethylpentane] + CCCCCCCCCCCC[N+](C)(C)CCOc1ccccc1.O=S(=O)([N-]S(=O)(=O)C(F)(F)F)C(F)(F)F | 3.72 ± 0.25 | 3.77 ± 0.26 | 3.82 ± 0.26 | 3.86 ± 0.26 | 3.9 ± 0.27 |  | 3.66 ± 0.25
27 | CCC(C)(C)C [2,2-dimethylbutane] + CCCCCCCCCCCC[N+](C)(C)CCOc1ccccc1.N#C[N-]C#N | 5.84 ± 0.4 | 5.95 ± 0.41 | 6.05 ± 0.41 | 6.14 ± 0.42 | 6.25 ± 0.43 | 6.35 ± 0.43 | 
28 | CCC(C)(C)C [2,2-dimethylbutane] + CCCCCCCCCCCC[N+](C)(C)CCOc1ccccc1.O=S(=O)([N-]S(=O)(=O)C(F)(F)F)C(F)(F)F | 2.91 ± 0.2 | 2.99 ± 0.2 | 3.07 ± 0.21 | 3.15 ± 0.21 | 3.24 ± 0.22 |  | 2.82 ± 0.19
29 | CCOC(C)(C)C [2-ethoxy-2-methylpropane] + CCCCCCCCCCCC[N+](C)(C)CCOc1ccccc1.N#C[N-]C#N | 3.66 ± 0.25 | 3.74 ± 0.25 | 3.82 ± 0.26 | 3.9 ± 0.27 | 3.97 ± 0.27 | 4.03 ± 0.27 | 
30 | CCOC(C)(C)C [2-ethoxy-2-methylpropane] + CCCCCCCCCCCC[N+](C)(C)CCOc1ccccc1.O=S(=O)([N-]S(=O)(=O)C(F)(F)F)C(F)(F)F | 1.87 ± 0.13 | 1.94 ± 0.13 | 2.01 ± 0.14 | 2.09 ± 0.14 | 2.16 ± 0.15 |  | 1.8 ± 0.12
